Experimental data taken from paper PMC5948259, “A phase I study to assess the mass balance, excretion, and pharmacokinetics of [^14C]-ixazomib, an oral proteasome inhibitor, in patients with advanced solid tumors” (Investigational New Drugs, 2017).
Several values for one entry are separate records, joined by “and”; a condition that tells them apart may be missing. Identical values can stand only once. Like-named read-outs stand apart in the source and are kept apart here.

Assays:
[1] = design: method as in PMID 25011071; settings: patients with MM; cited from earlier work
[2] = design: method as in PMID 28290121; settings: population PK estimate; cited from earlier work
[3] = design: method as in PMID 28550039; settings: 4 mg capsules, relapsed or refractory light-chain amyloidosis, cited from earlier work
[4] = Safety and tolerability (treatment-emergent adverse events) of ixazomib in patients with advanced solid tumors; assay type: in vivo, human
Experimental: (§1) The primary objectives of the study were: (1) to assess the mass balance (i.e., cumulative excretion of TRA in urine and feces) of ixazomib following a single oral solution dose of 4.1 mg [^14C]-ixazomib containing approximately 500 nCi of TRA (specific activity of 125 nCi/mg); and (2) to characterize the PK of ixazomib in plasma and urine, and of TRA in plasma and whole blood, after a single oral solution dose of 4.1 mg [^14C]-ixazomib. The secondary objective was to assess the safety and tolerability of multiple-dose ixazomib administration in patients with advanced solid tumors or lymphoma.
(§2) This study was conducted in two parts: a 35-day PK cycle (Part A), followed by repeated 28-day treatment cycles (Part B; Fig. 1). In Part A of the study, patients who met the inclusion and exclusion criteria were admitted to the study clinic on the morning of day 1 for the initial confinement period (days 1–8). Patients received a single 10 mL oral solution dose of 4.1 mg [^14C]-ixazomib containing approximately 500 nCi of TRA, followed by 3 × 10 mL water rinses of the dosing cup. Patients then drank approximately 200 mL of water. Patients returned to the clinic on days 14, 21, 28, and 35 for a 24 h overnight clinic visit. Non-radiolabeled doses of ixazomib (4 mg capsule) were administered on days 14 and 21. After completing their day 35 assessments in Part A, patients were permitted to continue into Part B of the study, where they received non-radiolabeled ixazomib (4 mg capsules) once weekly on days 1, 8, and 15 of each 28-day treatment cycle until disease progression or unacceptable toxicity. All doses of ixazomib were administered on an empty stomach, at least 1 h before or at least 2 h after food.

[5] = cited from earlier work
advanced solid tumors = experiment: Disease status during the study (efficacy, not a formal endpoint); assay type: in vivo, human; settings: for Time on study with long-term stable disease: single-agent ixazomib
Experimental: as §2

[6] = tested on: cytochrome P450 (CYP) and non-CYP proteins; design: method as in earlier work; settings: clinically relevant ixazomib concentrations; cited from earlier work
[7] = tested on: plasma proteins, primarily serum albumin; design: method as in PMID 27121262, PMID 27196567; settings: cited from earlier work
[8] = Mass balance: recovery of TRA in urine and feces by accelerator mass spectrometry; assay type: in vivo, human; settings: for Total recovery (%) of TRA in urine and feces: days 1–35
Experimental: as §1, §2
(§3) Plasma and whole blood samples were collected at the following time points after ixazomib administration on day 1 of Part A: 0 (predose), 0.5, 1, 2, 3, 4, 8, 24, 48, 72, 96, 120, 144, 168, 312 (day 14), 480 (day 21), 648 (day 28), and 816 (day 35) h post dose. Complete urinary and fecal output was collected continuously during the initial confinement period of Part A (days 1–8). Patients were discharged from the clinic on day 8 and returned on days 14, 21, 28, and 35 for a 24 h overnight visit. Urinary and fecal output was collected during each of these 24 h overnight clinic visits. Patients were also instructed to collect all feces at home for the 24 h period before each overnight clinic visit (days 13, 20, 27, and 34).
To achieve enhanced analytical sensitivity, accelerator mass spectrometry (AMS) was used to determine TRA in urine, feces, whole blood, and plasma samples. […] At the testing facility (Accium BioSciences, Seattle, WA, USA), samples were assigned a unique tracking number, labeled, and stored at −70 °C until further analysis. Samples were subsequently removed from storage, thawed at room temperature, and thoroughly mixed. A known aliquot of each specimen was transferred to a pre-baked quartz tube and a known amount of carbon carrier added. Samples were then dried using vacuum centrifugation and submitted for graphitization; a known amount of each specimen was combusted and then reduced to graphite for measurement of total ^14C in the sample [22]. The resulting iron-graphite mixture was pressed into individual cathodes and submitted for AMS measurement on a National Electrostatics 5.2.1.Corporation (NEC) 1.5SDH Compact AMS System (Middleton, WI) running data acquisition software developed by NEC. Total carbon measurements were performed on a Shimadzu V-Series Total 5.2.2.Organic Carbon Analyzer, which uses oxidative combustion combined with non-dispersive infrared detection for the determination of total carbon concentrations. […]

CYP3A4 = tested on: CYP3A4; design: method as in earlier work; settings: 10 μM, exceeding clinical concentrations; cited from earlier work
relapsed/refractory MM = tested on: relapsed/refractory MM; design: method as in PMID 27119237; settings: cited from earlier work
CYP2B6 = tested on: CYP2B6; design: method as in earlier work; settings: 10 μM, exceeding clinical concentrations; cited from earlier work
CYP2C19 = tested on: CYP2C19; design: method as in earlier work; settings: 10 μM, exceeding clinical concentrations; cited from earlier work
CYP2C8 = tested on: CYP2C8; design: method as in earlier work; settings: 10 μM, exceeding clinical concentrations; cited from earlier work
CYP2D6 = tested on: CYP2D6; design: method as in earlier work; settings: 10 μM, exceeding clinical concentrations; cited from earlier work
[9] = PK of ixazomib in plasma and urine (LC/MS/MS) after a single [14C]-ixazomib oral solution dose, phase I human ADME study Part A; assay type: in vivo; settings: N = 5
Experimental: as §1, §2, §3
Plasma and urine concentrations of ixazomib were measured using a validated liquid chromatography/tandem mass spectrometry (LC/MS/MS) assay with a quantitation range of 0.5–500 ng/mL [16].
The plasma PK of ixazomib was characterized over the first 14 days post dose, while the urine PK and excretion of ixazomib was assessed over the first 7 days post dose. TRA in plasma, whole blood, urine, and feces was assessed over the 35-day post-dose period in Part A. Mass balance of radiolabeled ixazomib was characterized based on the sum of cumulative amounts excreted in feces and urine during the continuous collection interval up to 7 days post dose (day 8, 168 h), and the interpolated amounts excreted in feces and urine between the weekly intermittent collections up to 35 days post dose. For the intervals of time during which urine and feces were not collected, the interval recovery of TRA was estimated as the area under the excretion rate-time curve from the end of the preceding collection interval to the start of the subsequent collection interval. PK parameters were calculated by non-compartmental analysis methods (Phoenix WinNonlin version 6.2, Certara, Princeton, NJ, USA).

CYP1A2 = tested on: CYP1A2; design: method as in earlier work; settings: 10 μM, exceeding clinical concentrations; cited from earlier work
CYP2C9 = tested on: CYP2C9; design: method as in earlier work; settings: 10 μM, exceeding clinical concentrations; cited from earlier work
[10] = cited from earlier work; remark: listed apart in the source
[11] = design: method as in PMID 28800141; settings: cited from earlier work

Compound: CC(C)C[C@H](NC(=O)[C@H](Cc1ccccc1)NC(=O)c1cnccn1)B(O)O [bortezomib]
- Concentrations in whole blood higher than those observed in plasma [1]: 3 fold

Compound: CC(C)C[C@H](NC(=O)CNC(=O)c1cc(Cl)ccc1Cl)B(O)O [ixazomib]
- Absolute oral bioavailability [2]: 58%
- Steady-state volume of distribution [2]: 543 L
- Systemic clearance [2]: 1.86 L/h
- Terminal disposition phase half-life (t1/2) [2]: 228 h
- Whole blood to plasma AUC0–168 ratio for ixazomib alone ([3]; day 1): 12.7
- Whole blood to plasma AUC0–168 ratio for ixazomib alone ([3]; day 15): 9.86
- Abdominal pain incidence ([4]; human, in vivo): 43%
- Constipation incidence ([4]; human, in vivo): 29%
- Decreased appetite incidence ([4]; human, in vivo): 43%
- Diarrhea incidence ([4]; human, in vivo): 71%
- Dry mouth incidence ([4]; human, in vivo): 14%
- Headache incidence ([4]; human, in vivo): 43%
- Nausea incidence ([4]; human, in vivo): 29%
- Patients experiencing a grade 3 AE (influenza and platelet count decreased) ([4]; human, in vivo): two patients
- Patients with a drug-related event ([4]; human, in vivo): 86%
- Premature discontinuation or dose reduction due to an adverse event ([4]; human, in vivo): No patients
- Serious adverse event (influenza, deemed unrelated to study drug) ([4]; human, in vivo): One patient
- TEAEs affecting the gastrointestinal system ([4]; human, in vivo): all patients experiencing an event
- Vomiting incidence ([4]; human, in vivo): 29%
- Deaths on study ([4]; safety population N = 7): no patients died while on study
- Median time to first maximum observed concentration (Tmax) ([5]; after oral administration): approximately 1 h
- Effect of a high-fat meal on ixazomib absorption [5]: decreases both the rate and extent of ixazomib absorption
- Geometric mean t1/2 [5]: 228 h
- Patients who developed progressive disease during the study period (advanced solid tumors; 7 patients enrolled): 5 patients
- Time on study with long-term stable disease (advanced solid tumors; patient with cholangiocarcinoma): 162 days
- Time on study with long-term stable disease (advanced solid tumors; patient with ovarian cancer): 427 days
- Metabolic pathways in vitro [6]: metabolized by multiple cytochrome P450 (CYP) and non-CYP proteins with CYP450 enzymes playing only a minor role
- Bound to plasma proteins [7]: 99%
- Cumulative TRA recovered in feces (days 1–35, %) of administered dose ([8]; Mean (SD), N = 5): 21.8% and 21.8 (3.41) %
- Cumulative TRA recovered in urine (days 1–35, %) of administered dose ([8]; Mean (SD), N = 5): 62.1% and 62.1 (21.2) %
- Total recovery (%) of TRA in urine and feces ([8]; Mean (SD), N = 5): 83.9 (20.7) %
- Cumulative TRA recovered in feces (days 1–35, %) of administered dose ([8]; Patient 001): 18.3%
- Cumulative TRA recovered in urine (days 1–35, %) of administered dose ([8]; Patient 001): 40.8%
- Total recovery (%) of TRA in urine and feces ([8]; Patient 001): 59.1%
- Cumulative TRA recovered in feces (days 1–35, %) of administered dose ([8]; Patient 002): 18.7%
- Cumulative TRA recovered in urine (days 1–35, %) of administered dose ([8]; Patient 002): 96.0%
- Total recovery (%) of TRA in urine and feces ([8]; Patient 002): 115%
- Cumulative TRA recovered in feces (days 1–35, %) of administered dose ([8]; Patient 005): 26.4%
- Cumulative TRA recovered in urine (days 1–35, %) of administered dose ([8]; Patient 005): 58.5%
- Total recovery (%) of TRA in urine and feces ([8]; Patient 005): 84.9%
- Cumulative TRA recovered in feces (days 1–35, %) of administered dose ([8]; Patient 006): 23.7%
- Cumulative TRA recovered in urine (days 1–35, %) of administered dose ([8]; Patient 006): 49.3%
- Total recovery (%) of TRA in urine and feces ([8]; Patient 006): 73.0%
- Cumulative TRA recovered in feces (days 1–35, %) of administered dose ([8]; Patient 007): 21.9%
- Cumulative TRA recovered in urine (days 1–35, %) of administered dose ([8]; Patient 007): 65.7%
- Total recovery (%) of TRA in urine and feces ([8]; Patient 007): 87.6%
- Daily increment in excretion of TRA ([8]; after day 28): < 1%
- Mean cumulative excretion of TRA in urine and feces ([8]; by day 14 post dose): 59.0%
- Mean total recovery of TRA in urine and feces ([8]; day 28 (plateau of excretion rate)): 79.4%
- Orally administered dose absorbed into the systemic circulation, suggested by urinary recovery ([8]; inferred from urinary TRA recovery): at least 62%
- Estimated relative contribution of 3A4 to metabolism (CYP3A4): 42%
- Median progression-free survival (relapsed/refractory MM; ixazomib (4 mg starting dose) added to lenalidomide and dexamethasone, RRMM patients, versus 14.7 months with placebo): 20.6 months
- Progression-free survival hazard ratio (relapsed/refractory MM; ixazomib plus lenalidomide and dexamethasone versus placebo plus lenalidomide and dexamethasone, p = 0.012): 0.74
- Estimated relative contribution of 2B6 to metabolism (CYP2B6): 16%
- Estimated relative contribution of 2C19 to metabolism (CYP2C19): 5%
- Estimated relative contribution of 2C8 to metabolism (CYP2C8): 6%
- Estimated relative contribution of 2D6 to metabolism (CYP2D6): 5%
- AUC(0-t) ([9]; human, plasma, po, 4.1 mg, plasma, single 4.1 mg oral solution dose of [14C]-ixazomib, read-out: Geometric mean AUC0–168, ng*h/mL (%CV), ixazomib): 847 ng·h/mL
- AUC(0-t) ([9]; human, plasma, po, 4.1 mg, plasma, single 4.1 mg oral solution dose of [14C]-ixazomib, read-out: Geometric mean AUC0–312, ng*h/mL (%CV), ixazomib): 1180 ng·h/mL
- dose excreted ([9]; human, urine, po, 4.1 mg, up to 168 h post dose, single 4.1 mg oral solution dose, read-out: Mean urinary recovery, % (SD): administered dose recovered in urine as unchanged drug): < 3.5%
- Cmax ([9]; human, plasma, single 4.1 mg oral solution dose of [14C]-ixazomib, read-out: Geometric mean Cmax, ng/mL (%CV), ixazomib): 89.1 ng/mL
- CL renal ([9]; human, urine, single 4.1 mg oral solution dose of [14C]-ixazomib, read-out: Geometric mean CLR (renal clearance), L/h (%CV) (converted)): 0.119 L/h
- Mean urinary recovery, % (SD): administered dose recovered in urine as unchanged drug ([9]; up to 168 h post dose, single 4.1 mg oral solution dose): 3.23 (2.13) %
- Estimated relative contribution of 1A2 to metabolism (CYP1A2): 26%
- Estimated relative contribution of 2C9 to metabolism (CYP2C9): < 1%
- Higher total systemic exposure of ixazomib ([10]; moderate and severe hepatic impairment): 20%
- Effect of mild hepatic impairment (total bilirubin ≤1.5 x ULN) on ixazomib PK ([10]; population PK analyses): no clinically meaningful effect
- Effect of mild renal impairment (CrCl ≥30 mL/min) on ixazomib PK ([10]; population PK analyses): no clinically meaningful effect
- Higher total systemic exposure of ixazomib compared with normal renal function ([10]; severe renal impairment and end-stage renal disease): 39%
- Plasma exposures versus patients with normal organ function ([10]; severe renal impairment, end-stage renal disease requiring dialysis, moderate or severe hepatic impairment, dedicated phase I studies): increased
- Reduction of plasma exposures (AUC) of ixazomib ([11]; co-administration of rifampin): 74%
- Effect of strong CYP3A inhibitors on ixazomib PK ([11]; ketoconazole and clarithromycin): no significant effect
